Reference: patent US5354754A, “Pyrrolopyrimidines, their production and use” (Takeda Chemical Industries, Ltd., priority 1989, dated 1994)
Converted amounts (≈) assume the structure as drawn.

Legend:
[1] = test system: glycinamide ribonucleotide transformylase; details: in words, Journal of Medicinal Chemistry, 28, 914(1985); cited from earlier work
[2] = test system: dihydrofolic acid reductase; details: in words, prior art; cited from earlier work
[3] = test system: Human epidermoid carcinoma KB cells; test: cell growth inhibiting effect on KB cells (MTT, 72 hours); format: cell-based; details: 37° C., 5% CO2, MTT, absorbance at 590 nm
Procedure: The cell growth inhibiting effect (IC50) on KB cells of the compounds obtained in the following Examples was measured by the following method. (Hereinafter, % means weight %.)
Human epidermoid carcinoma KB cells (1×10^4 /ml) prepared by a conventional method were inoculated in a volume of 0.1 ml for each hole of the 96-microwell plate, and cultured at 37° C. for 24 hours without agitation in an atmosphere of 5% CO2. A 10% solution of one compound obtained by Example in 10% MEM (minimal essential medium, Nissui Pharmaceutical Co. Ltd, Japan) was added thereto, and the cells were cultured again at 37° C. for 72 hours without agitation in an atmosphere of 5% CO2. The culture was removed by using a micropipet, and another 10% solution 0.1 ml of MTT [3-(4,5-dimethylthiazol-2-yl)-2,5-diphenyltetrazolium bromide] (Dojin Laboratories, Japan) in 10% MEM (1.0 mg/ml) was added thereto. The cells were cultured at 37° C. for 4 hours. A 10% SDS [sodium dodecylsulfate](Wako Pure Chimicals, Japan) solution (0.1 ml) was further added, and the cells were cultured at 37° C. for 24 hours. The absorbance at 590 nm was measured, and the concentration of a drug needed for decreasing the number of cells in non-treated control group to a degree of 50% was determined as IC50 value of the compound.

SMILES | inhibition of glycinamide ribonucleotide transformylase [1] | inhibition of dihydrofolic acid reductase [2] | IC50 [3] [ng/mL]
Nc1nc2c(c(=O)[nH]1)C[C@@H](CCc1ccc(C(=O)N[C@@H](CCC(=O)O)C(=O)O)cc1)CN2 [DDATHF] | main mechanism of which consists in inhibition of glycinamide ribonucleotide transformylase | does not inhibit dihydrofolic acid reductase | 
Nc1nc(N)c2c(CCCc3ccc(C(=O)N[C@@H](CCC(=O)O)C(=O)O)s3)c[nH]c2n1 [Example 3, N-[5-(3-(2,4-diamino-7H-pyrrolo[2,3-d]pyrimidin-5-yl)propyl)-2-thenoyl]-L-glutamic acid] |  |  | 0.43 (≈ 0.963 nM)
CN(Cc1cnc2nc(N)nc(N)c2n1)c1ccc(C(=O)N[C@@H](CCC(=O)O)C(=O)O)cc1 [methotrexate] |  | inhibit the reduction from dihydrofolic acid to tetrahydrofolic acid by coupling strongly with the dominant enzyme in the second step | 
